Results published in PMC12040169 (PLOS Biology, 2025).

Experiment: in vitro
Conditions: human, hela cells, % viability

| SMILES | viability at 28.5 h, 10 µM | viability at 28.5 h, 10 µM (bulk resorufin, single well) |
| --- | --- | --- |
| COc1ccc(CCNC(=O)c2nc3ncccn3n2)cc1OC [CBK268795] | 90.4% | – |
| O=c1oc(-c2cccc(F)c2)nc2cc(Cc3ccc4c(=O)oc(-c5cccc(F)c5)nc4c3)ccc12 [CBK262775] | 121% | – |
| Cc1cc(Oc2ccccc2)nc(Oc2ccc(OCC(N)=O)nn2)n1 [CBK266687] | 98.5% | – |
| COc1ccccc1CC(C)NC(=O)CCn1ccc2ccncc21 (centres unmarked) [CBK285175] | 93.8% | – |
| Cc1cc(CN2CCC(C(=O)c3ccc(F)cc3)CC2)no1 [CBK149121] | 89.2% | – |
| Cc1nn(Cc2cccc3ccccc23)c(C)c1NC(=O)c1ccncc1 [CBK269990] | 93.4% | – |
| C=CCn1c(-c2sc(NC(=O)CCc3ccco3)nc2C)n[nH]c1=S [CBK295312] | 89.4% | – |
| CN(C)CCN(C)C(=O)c1ccc(-c2cccc(C(=O)NCCO)c2)nc1NCC1CC1 [CBK076603] | 94% | – |
| O=C(O)CSc1nnc(C2COc3ccccc3O2)n1-c1ccccc1 (centres unmarked) [CBK263832] | 104% | – |
| CC(=O)Nc1ccc(-c2nc3c4ccccc4c4ccc(I)cc4c3[nH]2)cc1 [CBK262667] | 100% | – |
| O=C(N/N=C/c1cc(O)c(Br)cc1Br)c1ccncc1 [CBK262297] | 76.8% | – |
| O=C1CCC(=O)N1CCOc1nccnc1N1CCNCC1 [CBK074030T] | 97.6% | – |
| Cc1ncsc1C(=O)NCc1ccc(S(=O)(=O)N2CCCCC2)cc1 [CBK305556] | 89.9% | – |
| O=c1n(Cc2ccccn2)c2cccnc2n1Cc1cccs1 [CBK283867] | 90.2% | – |
| COCc1cccc(-c2ncc(OCCN3CCCC3=O)nc2NC(C)=O)c1 [CBK145239] | 94.8% | – |
| O=C(NCCN1CCCCC1)c1cccc(Oc2ccccc2)c1 [CBK270335] | 98.2% | – |
| Cc1nn(CC(=O)N2CCCCC2C)c(=O)c2cc3sccc3n12 (centres unmarked) [CBK284141] | 70% | – |
| COCCN1C(=O)C2(CC(=O)N(CCN3CCCC3=O)C2=O)c2cc(OC)ccc21 (centres unmarked) [CBK075189] | 92.4% | – |
| Cc1cc(C(=O)Nc2ccc([C@@H](O)[C@H]3COCC(=O)N3Cc3ccccc3)cc2)n(C)n1 [CBK289669] | 89% | – |
| O=c1cc(CN2CCOCC2)oc2c(OCc3nnnn3C3CC3)cccc12 [CBK007813] | 101% | – |
| O=C1NC(=S)NC(=O)C1=CNc1ccc(F)c(Cl)c1 [CBK262391] | – | 118% |
| Cc1onc(-c2ccccc2)c1CNC(=O)CC1CCCCC1 [CBK144078] | 89.1% | – |

| SMILES | viability at 28.5 h, 10 µM | viability at 28.5 h, 10 µM (bulk resorufin, single well) |
| --- | --- | --- |
| CCN(CC)C(=O)CN1CCN(c2nccnc2OCCN2C(=O)CCC2=O)CC1 [CBK084297] | 102% | – |
| CCc1cc(-c2n[nH]c(C(=O)O)c2-c2nc(C)cs2)c(O)cc1O [CBK268247] | 99.4% | – |
| CN(CC(=O)N1CCN(Cc2ccc3c(c2)OCO3)CC1)S(=O)(=O)c1ccc2ccccc2c1 [CBK267016] | 108% | – |
| O=C(NCc1ccco1)/C(=C\c1ccccc1)NC(=O)c1ccc(Br)cc1 [CBK263701] | 87.7% | – |
| CC(C)C[C@H]1NC(=O)C2(C/C=C/C[C@@H]3COCC[C@@H]3NC1=O)CCN(C(=O)[C@@H](N)Cc1c[nH]c3ccccc13)CC2 [CBK292200] | 109% | – |
| C=CCn1c(Cc2csc(NC(=O)c3ccc(C)c(F)c3)n2)n[nH]c1=S [CBK295307] | 80.6% | – |
| CSCCC(C(=O)O)N1C(=O)C(=Cc2ccc(-c3cc(Cl)cc(Cl)c3)o2)SC1=S (centres unmarked) [CBK296984] | 87.3% | – |
| O=c1n(CC2CCCCC2)c2ccccc2n1S(=O)(=O)CCc1cccc2ccccc12 [CBK106525] | 101% | – |
| O=C(Cc1ccccc1)N1CCN(c2ncccn2)CC1 [CBK144518] | 116% | – |
| CCN1CC2(CCN(CCCC#N)CC2)c2ccccc21 [CBK136995] | 91.1% | – |
| Cc1c(Nc2ncnc3sc4c(c23)CCCC4)c(=O)n(-c2ccccc2)n1C [CBK093912] | 93.1% | – |
| CN(CC1(C)COC1)C(=O)Cc1cccc2cccnc12 [CBK281963] | 91.7% | – |
| CSCCC(C(=O)O)N1C(=O)c2ccc(C(=O)O)cc2C1=O (centres unmarked) [CBK265135] | 110% | – |
| CCc1ccc(C2CC(=O)c3c(ccc4ccccc34)N2)cc1 (centres unmarked) [CBK098787] | 93.8% | – |
| Cc1ccc(C(=O)N2C[C@H]3NC(=O)c4ccccc4C(=O)[C@@]3(C)C2)cc1 [CBK285315] | 87.6% | – |
| Cc1nc(C)c(C(=O)N2C3CCC2c2cc(Cl)cnc2C3)s1 (centres unmarked) [CBK284953] | 103% | – |
| Cc1ccc(S(=O)(=O)N(CC(=O)O)c2cccc(Cl)c2)cc1 [CBK262387] | 91.7% | – |
| O=C(Nc1ccncc1)c1cnc2cc(C(F)(F)F)ccc2c1O [CBK116633T] | 92.1% | – |
| CCOC(=O)c1ccc(NC(=O)C(C)Sc2nc3ccccc3[nH]2)cc1 (centres unmarked) [CBK267330] | 91.8% | – |
| O=C(c1cccc(-c2cncc(-c3ccc(O)cc3)n2)c1)N1CCOCC1 [CBK123796] | 100% | – |
| COC(=O)CNC(=O)CNS(=O)(=O)c1ccc(C(C)=O)cc1 [CBK044117] | 89.1% | – |
| CCOCCCNc1nc2c(c(=O)[nH]c(=O)n2C)n1CCC(C)C [CBK287968] | 87.7% | – |

| SMILES | viability at 28.5 h, 10 µM | viability at 28.5 h, 10 µM (bulk resorufin, single well) |
| --- | --- | --- |
| O=C1NC2(CCN(C(=O)CCc3ccc(-c4ccccc4)o3)CC2)Nc2ccccc21 [CBK286316] | 106% | – |
| CN(C)S(=O)(=O)c1cc(C(=O)Nc2ccc(C(=O)O)cc2)c(Cl)cc1Cl [CBK266783] | 99.5% | – |
| NC(=O)c1ccc(SCC(=O)O)c([N+](=O)[O-])c1 [CBK034310] | 97.7% | – |
| COc1cc(CN2CCN(c3ccccn3)CC2)ccc1OCc1ccccc1 [CBK261906] | 88.8% | – |
| C=CCn1c(Cc2csc(NC(=O)c3ccc(OC(F)F)cc3)n2)n[nH]c1=S [CBK295338] | 100% | – |
| COc1ccc(-c2nn(-c3ccccc3)cc2/C=C2\SC(N3CCC(C(N)=O)CC3)=NC2=O)cc1 [CBK265178] | 105% | – |
| O=C(NC1(C#Cc2cnc3ccccc3c2)CCCCC1)C1CCCO1 (centres unmarked) [CBK283085] | 81.9% | – |
| COc1ccc(CN2C(=S)N(c3ccc(Cl)cc3)[C@H]3[C@@H]2[C@H]2OC(=O)[C@@H]3C[C@H]2O)cc1 [CBK288935] | 99.8% | – |
| Cc1c(C(=O)CCN(C)C2CC=C(c3ccc(F)cc3)CC2)cnn1CCO (centres unmarked) [CBK023799] | 90.4% | – |
| Cn1ccc(N2CCCC(NC(=O)c3scnc3C(C)(C)C)C2=O)n1 (centres unmarked) [CBK305453] | 94.9% | – |
| O=C(O)c1ccc2[nH]c(=O)[nH]c2c1 [CBK032631] | 81.3% | – |
| COc1cccc(CN2CCN(CC(=O)N3CCCC3)[C@@H](C)C2)c1 [CBK286171] | 78.1% | – |
| O=C(COc1cccnc1)N[C@H]1C2CCCCC2[C@@H]1c1ccccc1 (some centres unmarked) [CBK282951] | 100% | – |
| O=C(COc1ccc(CCO)cc1)Nc1ccccc1-c1ccccc1 [CBK269666] | 80.9% | – |
| COc1ccc(Cl)cc1-c1noc(Cn2nc(C)c(Cl)c2C)n1 [CBK269813] | 92.1% | – |
| COc1ccc(NC(=O)CSc2nc3ccccc3n2-c2ccccc2)c([N+](=O)[O-])c1 [CBK266060] | 91.8% | – |
| CCCCn1c(SCC(=O)N(C)Cc2cnn(-c3ccccc3)c2)n[nH]c1=O [CBK296732] | 106% | – |
| Cc1ccccc1OCc1nnc(SCC(=O)N2CCOCC2)n1C [CBK265850] | 96.1% | – |
| O=C(c1cccc(F)c1)N1CCCC1c1cc2cccnc2[nH]1 (centres unmarked) [CBK285081] | 93.1% | – |
| COc1ccc(CCC(=O)N2CCCC(c3nccnc3-c3cccc(C)c3)C2)cc1 (centres unmarked) [CBK286510] | 99.6% | – |
| Cc1cc(C(=O)N2CCN(Cc3ccc4c(c3)OCO4)CC2)nn1C [CBK074832] | 111% | – |
| O=C(O)CCN1C(=O)c2ccc(NC(=O)CCc3ccccc3)cc2C1=O [CBK266422] | 95.2% | – |

| SMILES | viability at 28.5 h, 10 µM | viability at 28.5 h, 10 µM (bulk resorufin, single well) |
| --- | --- | --- |
| Cc1ccc(SCC(=O)NCc2nc(-c3ccccc3)no2)cc1 [CBK269474] | 102% | – |
| O=C(NC1CCCCC1)c1cc(NC(=O)c2ccccc2C(=O)O)ccc1Cl [CBK287062] | 96.3% | – |
| CN(C)C(=O)Cc1ccc(-c2ccccc2)cc1 [CBK012162] | 94.2% | – |
| O=C(N[C@@H](Cn1cc(F)c(=O)[nH]c1=O)C(=O)O)C1CCCC1 [CBK289660] | 109% | – |
| N#Cc1ccnc(SCC(=O)Nc2ccc(CN3CCOCC3)cc2)c1 [CBK306010] | 103% | – |
| Nc1ncnc(Nc2cc(C(F)(F)F)cc(C(F)(F)F)c2)n1 [CBK006617] | 86.8% | – |
| COc1ccc(-c2oc3ncn4nc(COc5ccccc5C)nc4c3c2-c2ccc(OC)cc2)cc1 [CBK265283] | 94.8% | – |
| CC(C)(C)c1ccc(-c2cnc3nc(N)ccc3c2)cc1 [CBK061888] | 88.3% | – |
| O=C(NCC1CCCO1)c1ccc(NC(=O)C2C3C=CC(C3)C2C(=O)O)cc1 (centres unmarked) [CBK266317] | 94.9% | – |
| FC(F)(F)c1ccc(N2CCNCC2)nc1OCc1ccc2c(c1)OCCO2 [CBK003994A] | 113% | – |
| Cc1cc(C(F)(F)F)nc(CCNC(=O)N(Cc2ccsc2)C2CC2)n1 [CBK307468] | 107% | – |
| O=C(Nc1cccnc1)c1ccnc(Cl)c1 [CBK089829] | 100% | – |
| O=C(Nc1nc2c(s1)CCCC2)c1ccccc1 [CBK287326] | 82.9% | – |
| Cc1nc(-c2ccccc2)sc1CNC(=O)/C=C\C(=O)Nc1ccc(F)cc1 [CBK092357] | 96.2% | – |
| COc1cccc(CN2CCC3(C2)c2[nH]c4ccccc4c2CCN3Cc2cccc(OC)c2)c1 (centres unmarked) [CBK059468] | 90.5% | – |
| c1csc(-c2csc3ncnc(NCCCN4CCOCC4)c23)c1 [CBK267166] | 98.1% | – |
| O=C(Nc1ccc2nsnc2c1NC(=O)c1ccc2nsnc2c1)c1ccc2nsnc2c1 [CBK264309] | 95.9% | – |
| COc1ccc(CCNC(=O)CN2CCCCC2C)cc1 (centres unmarked) [CBK304827] | 94.4% | – |
| O=C(c1nc(=O)[nH][nH]1)N1CCN(Cc2ccc(C(F)(F)F)cc2)CC1 [CBK298312] | 95.5% | – |
| CCOc1ccccc1CNc1ccc(C2c3ccsc3CCN2C(=O)COC)cc1 (centres unmarked) [CBK286461] | 88.5% | – |
